# Results reported in ChEMBL document CHEMBL1142534, “Design, synthesis, biological evaluation and pharmacokinetics of bis(hydroxyphenyl) substituted azoles, thiophenes, benzenes, and aza-benzenes as potent and selective nonsteroidal inhibitors of 17beta-hydroxysteroid dehydrogenase type 1 (17beta-HSD1)” (J Med Chem, 2008).
# Activity calls are given as the source filed them. No cut-off for these calls is given here.
# What was measured:
# [1] = biological target: T1, 17-beta-hydroxysteroid dehydrogenase type 1 (Homo sapiens) (UniProt P14061); test: (§1) Inhibition of human placental cytosolic 17beta-HSD1
# T1 sequence (whole entry): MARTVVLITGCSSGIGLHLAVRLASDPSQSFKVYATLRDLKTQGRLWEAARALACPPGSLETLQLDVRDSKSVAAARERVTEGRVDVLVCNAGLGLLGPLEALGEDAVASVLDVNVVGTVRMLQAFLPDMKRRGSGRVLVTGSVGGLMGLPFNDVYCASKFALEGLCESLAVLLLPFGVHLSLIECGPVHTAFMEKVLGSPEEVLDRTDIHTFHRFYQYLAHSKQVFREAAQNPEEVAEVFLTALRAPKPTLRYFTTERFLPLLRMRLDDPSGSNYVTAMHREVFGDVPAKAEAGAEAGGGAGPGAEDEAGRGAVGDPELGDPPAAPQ
# [2] = biological target: T2, 17-beta-hydroxysteroid dehydrogenase type 1 (Homo sapiens, UniProt P14061); test: as §1
# T2 sequence (P14061 whole entry): T1 sequence (whole entry)
# [3] = biological target: T3, Estrogen receptor (Homo sapiens) (UniProt P03372); test: Displacement of [2,4,6,7-3H]17beta-estradiol from human recombinant ERalpha receptor relative to 17-beta-estradiol
# T3 sequence (whole entry): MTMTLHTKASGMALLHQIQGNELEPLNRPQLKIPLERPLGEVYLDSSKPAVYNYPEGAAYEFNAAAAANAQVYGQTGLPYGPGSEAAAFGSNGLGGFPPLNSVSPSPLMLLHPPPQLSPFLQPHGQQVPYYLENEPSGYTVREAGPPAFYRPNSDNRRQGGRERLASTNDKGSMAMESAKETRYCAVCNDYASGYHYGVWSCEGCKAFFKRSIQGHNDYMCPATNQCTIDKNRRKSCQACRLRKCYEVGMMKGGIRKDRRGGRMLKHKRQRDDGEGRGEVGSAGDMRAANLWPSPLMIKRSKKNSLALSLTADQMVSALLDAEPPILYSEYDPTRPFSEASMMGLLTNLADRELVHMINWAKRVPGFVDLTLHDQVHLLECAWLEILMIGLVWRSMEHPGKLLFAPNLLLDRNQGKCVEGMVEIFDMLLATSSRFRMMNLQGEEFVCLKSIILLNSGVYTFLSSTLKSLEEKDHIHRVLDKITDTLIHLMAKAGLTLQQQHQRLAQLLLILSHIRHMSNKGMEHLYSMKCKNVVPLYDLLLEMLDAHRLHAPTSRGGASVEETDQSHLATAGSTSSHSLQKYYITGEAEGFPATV
# [4] = biological target: Estrogen receptor beta (Homo sapiens) (UniProt Q92731); test: Displacement of [2,4,6,7-3H]17beta-estradiol from human recombinant ERbeta receptor relative to 17-beta-estradiol
# T47D = test: Estrogenic activity in human ER expressing T47D cells assessed as stimulation of cell proliferation at 100 nM by MTT assay; assay type: functional, cell-based
# in vitro [5] = details: human, Caco-2
# Description: Apparent permeability across human Caco-2 cells at 50 uM
# Cytochrome P450 1A2 = biological target: T4, Cytochrome P450 1A2 (Homo sapiens, UniProt P05177); test: Inhibition of human hepatic CYP1A2; assay type: ADME
# T4 sequence (P05177 whole entry): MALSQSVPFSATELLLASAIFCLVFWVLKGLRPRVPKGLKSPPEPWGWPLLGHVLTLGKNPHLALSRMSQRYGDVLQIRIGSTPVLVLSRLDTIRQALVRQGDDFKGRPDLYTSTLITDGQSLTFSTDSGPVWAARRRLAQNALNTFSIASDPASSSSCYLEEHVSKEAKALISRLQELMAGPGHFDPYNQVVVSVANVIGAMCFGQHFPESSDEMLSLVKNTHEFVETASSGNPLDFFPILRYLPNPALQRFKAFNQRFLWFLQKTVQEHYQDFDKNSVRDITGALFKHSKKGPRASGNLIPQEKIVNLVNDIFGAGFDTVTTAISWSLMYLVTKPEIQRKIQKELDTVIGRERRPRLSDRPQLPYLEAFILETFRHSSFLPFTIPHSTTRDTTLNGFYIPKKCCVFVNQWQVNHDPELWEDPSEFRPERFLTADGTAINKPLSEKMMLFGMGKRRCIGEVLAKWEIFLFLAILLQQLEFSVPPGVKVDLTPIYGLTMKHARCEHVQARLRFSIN
# Cytochrome P450 2B6 = biological target: T5, Cytochrome P450 2B6 (Homo sapiens, UniProt P20813); test: Inhibition of human hepatic CYP2B6; assay type: ADME
# T5 sequence (P20813 whole entry): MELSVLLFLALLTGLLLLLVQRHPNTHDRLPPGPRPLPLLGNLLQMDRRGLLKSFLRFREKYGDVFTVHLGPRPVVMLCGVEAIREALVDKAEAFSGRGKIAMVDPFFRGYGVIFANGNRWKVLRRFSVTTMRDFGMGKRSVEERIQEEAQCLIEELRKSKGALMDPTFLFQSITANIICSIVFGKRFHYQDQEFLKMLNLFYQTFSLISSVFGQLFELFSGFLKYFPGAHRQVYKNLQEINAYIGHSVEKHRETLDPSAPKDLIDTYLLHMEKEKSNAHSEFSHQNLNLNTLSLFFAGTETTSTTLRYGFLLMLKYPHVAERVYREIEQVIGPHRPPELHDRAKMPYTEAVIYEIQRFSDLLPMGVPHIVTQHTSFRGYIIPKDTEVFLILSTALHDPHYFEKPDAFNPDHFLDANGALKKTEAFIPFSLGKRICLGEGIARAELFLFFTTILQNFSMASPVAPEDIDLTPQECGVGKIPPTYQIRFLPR
# Cytochrome P450 2C19 = Cytochrome P450 2C19 (Homo sapiens, UniProt P33261); test: Inhibition of human hepatic CYP2C19; assay type: ADME
# Cytochrome P450 2D6 = Cytochrome P450 2D6 (Homo sapiens, UniProt P10635); test: Inhibition of human hepatic CYP2D6; assay type: ADME
# in vitro [6] = details: Sprague-Dawley, rat, liver microsomes
# in vitro [7] = details: Sprague-Dawley, rat, liver microsomes; remark: listed apart in the source
# [8] = Cmax in Wistar rat at 10 mg/kg, po by cassette dosing; assay type: ADME, organism-based; set-up: dose 10 mg/kg, route oral; details: in vivo
# Rattus norvegicus [9] = test: Clast in Wistar rat at 10 mg/kg, po by cassette dosing; assay type: ADME, organism-based; set-up: dose 10 mg/kg, route oral; details: in vivo
# [10] = Tmax in Wistar rat at 10 mg/kg, po by cassette dosing; assay type: ADME, organism-based; set-up: dose 10 mg/kg, route oral; details: in vivo
# Rattus norvegicus [11] = test: Tlast in Wistar rat at 10 mg/kg, po by cassette dosing; assay type: ADME, organism-based; set-up: dose 10 mg/kg, route oral; details: in vivo
# [12] = Half life in Wistar rat at 10 mg/kg, po by cassette dosing; assay type: ADME, organism-based; set-up: dose 10 mg/kg, route oral; details: in vivo, read-out: beta t1/2 (converted)
# Rattus norvegicus [13] = test: AUC (0 to Tlast) life in Wistar rat at 10 mg/kg, po by cassette dosing; assay type: ADME, organism-based, Plasma; set-up: dose 10 mg/kg, route oral; details: in vivo
# [14] = biological target: T6, 17-beta-hydroxysteroid dehydrogenase type 2 (Homo sapiens, UniProt P37059); test: Inhibition of human placental microsomal 17beta-HSD2
# T6 sequence (P37059 whole entry): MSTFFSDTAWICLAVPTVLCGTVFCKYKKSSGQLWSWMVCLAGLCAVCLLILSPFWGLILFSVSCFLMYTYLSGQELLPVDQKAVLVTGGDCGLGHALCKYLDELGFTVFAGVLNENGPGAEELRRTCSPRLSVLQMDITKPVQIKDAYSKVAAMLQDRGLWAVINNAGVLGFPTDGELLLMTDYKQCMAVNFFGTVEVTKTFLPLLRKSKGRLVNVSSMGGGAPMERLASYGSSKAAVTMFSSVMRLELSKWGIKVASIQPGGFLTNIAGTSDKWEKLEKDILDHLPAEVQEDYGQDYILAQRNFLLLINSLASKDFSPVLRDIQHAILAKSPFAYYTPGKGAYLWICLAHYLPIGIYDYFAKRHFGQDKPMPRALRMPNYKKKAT
# Cytochrome P450 2C9 = Cytochrome P450 2C9 (Homo sapiens, UniProt P11712); test: Inhibition of human hepatic CYP2C9; assay type: ADME
# Cytochrome P450 3A4 = Cytochrome P450 3A4 (Homo sapiens, UniProt P08684); test: Inhibition of human hepatic CYP3A4
# Chain of Cytochrome P450 3A4 (P08684 whole entry): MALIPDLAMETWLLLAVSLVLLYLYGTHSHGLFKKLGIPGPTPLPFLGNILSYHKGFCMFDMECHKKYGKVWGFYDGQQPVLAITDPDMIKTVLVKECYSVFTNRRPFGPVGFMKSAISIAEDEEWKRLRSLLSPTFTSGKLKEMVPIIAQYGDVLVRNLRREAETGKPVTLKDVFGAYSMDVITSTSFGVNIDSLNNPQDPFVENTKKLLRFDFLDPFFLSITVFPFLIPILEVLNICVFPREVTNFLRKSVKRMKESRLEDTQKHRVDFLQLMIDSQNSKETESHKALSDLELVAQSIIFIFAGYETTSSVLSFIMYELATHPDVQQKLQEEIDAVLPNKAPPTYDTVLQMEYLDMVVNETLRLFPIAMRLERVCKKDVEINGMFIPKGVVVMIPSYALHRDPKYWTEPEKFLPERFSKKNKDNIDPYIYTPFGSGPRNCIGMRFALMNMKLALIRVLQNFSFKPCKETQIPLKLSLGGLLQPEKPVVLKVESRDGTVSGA
# Chain of Estrogen receptor beta (Homo sapiens) (Q92731 whole entry): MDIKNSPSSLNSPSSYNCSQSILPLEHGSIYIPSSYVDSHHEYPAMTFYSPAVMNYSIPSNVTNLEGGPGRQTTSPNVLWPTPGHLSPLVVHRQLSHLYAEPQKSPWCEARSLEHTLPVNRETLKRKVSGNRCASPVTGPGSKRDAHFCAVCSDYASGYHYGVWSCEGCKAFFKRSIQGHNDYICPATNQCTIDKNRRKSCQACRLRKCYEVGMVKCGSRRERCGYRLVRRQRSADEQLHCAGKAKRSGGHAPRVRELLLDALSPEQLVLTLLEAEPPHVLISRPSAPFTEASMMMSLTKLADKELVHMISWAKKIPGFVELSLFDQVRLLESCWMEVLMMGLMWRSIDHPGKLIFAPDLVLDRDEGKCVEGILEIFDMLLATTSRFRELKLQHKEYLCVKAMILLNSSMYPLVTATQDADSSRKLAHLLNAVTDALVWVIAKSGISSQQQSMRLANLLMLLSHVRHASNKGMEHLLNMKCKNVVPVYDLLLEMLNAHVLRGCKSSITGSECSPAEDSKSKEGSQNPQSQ
# Chain of Cytochrome P450 2C19 (P33261 whole entry): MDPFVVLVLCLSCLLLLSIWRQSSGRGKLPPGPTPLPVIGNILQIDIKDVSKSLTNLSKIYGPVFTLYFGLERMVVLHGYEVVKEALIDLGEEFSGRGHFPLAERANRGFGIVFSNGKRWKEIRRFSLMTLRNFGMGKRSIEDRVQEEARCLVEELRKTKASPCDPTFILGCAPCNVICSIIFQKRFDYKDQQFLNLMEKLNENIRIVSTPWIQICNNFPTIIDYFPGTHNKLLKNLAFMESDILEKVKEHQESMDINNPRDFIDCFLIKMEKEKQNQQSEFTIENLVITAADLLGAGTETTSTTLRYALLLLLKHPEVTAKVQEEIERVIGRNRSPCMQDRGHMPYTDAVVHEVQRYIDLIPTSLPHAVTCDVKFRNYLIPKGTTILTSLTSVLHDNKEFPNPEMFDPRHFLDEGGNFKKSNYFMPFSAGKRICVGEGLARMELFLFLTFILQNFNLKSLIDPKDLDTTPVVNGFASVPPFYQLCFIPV
# Chain of Cytochrome P450 2D6 (P10635 whole entry): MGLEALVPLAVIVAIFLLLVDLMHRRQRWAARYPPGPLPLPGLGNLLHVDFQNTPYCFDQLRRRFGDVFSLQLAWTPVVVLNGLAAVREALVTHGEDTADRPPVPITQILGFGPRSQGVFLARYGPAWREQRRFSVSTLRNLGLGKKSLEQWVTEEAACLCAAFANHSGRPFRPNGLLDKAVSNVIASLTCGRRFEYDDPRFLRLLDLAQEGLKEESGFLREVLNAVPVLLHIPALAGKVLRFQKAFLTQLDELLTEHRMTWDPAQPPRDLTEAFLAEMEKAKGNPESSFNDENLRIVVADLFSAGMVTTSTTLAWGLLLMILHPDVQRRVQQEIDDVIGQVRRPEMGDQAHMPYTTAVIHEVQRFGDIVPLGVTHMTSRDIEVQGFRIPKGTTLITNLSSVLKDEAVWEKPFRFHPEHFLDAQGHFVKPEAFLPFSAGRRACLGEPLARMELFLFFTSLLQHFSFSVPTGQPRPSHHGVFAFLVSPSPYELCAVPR
# Chain of Cytochrome P450 2C9 (P11712 whole entry): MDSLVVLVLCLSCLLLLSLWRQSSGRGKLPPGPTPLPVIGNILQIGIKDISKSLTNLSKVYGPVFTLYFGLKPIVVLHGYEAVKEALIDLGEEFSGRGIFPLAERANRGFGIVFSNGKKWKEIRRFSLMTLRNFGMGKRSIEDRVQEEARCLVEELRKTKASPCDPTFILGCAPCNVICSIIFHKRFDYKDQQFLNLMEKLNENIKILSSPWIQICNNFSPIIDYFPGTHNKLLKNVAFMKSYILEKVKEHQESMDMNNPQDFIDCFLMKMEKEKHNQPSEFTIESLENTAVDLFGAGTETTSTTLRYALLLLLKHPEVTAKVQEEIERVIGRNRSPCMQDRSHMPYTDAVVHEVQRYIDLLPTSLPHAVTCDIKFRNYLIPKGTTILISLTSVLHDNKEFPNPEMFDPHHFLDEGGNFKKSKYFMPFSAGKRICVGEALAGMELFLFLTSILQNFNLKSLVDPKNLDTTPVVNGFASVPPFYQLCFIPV
smiles,measurement,setting,value
Oc1ccc(-c2ccc(-c3ccc(O)cc3)[se]2)cc1,Activity,[1],inactive
Oc1ccc(-c2csc(-c3ccc(O)cc3)c2)cc1,Activity,[1],inactive
Oc1ccc(-c2csc(-c3cccc(O)c3)c2)cc1,IC50,[2],77 nM
same,RBA,[3],0.01%
same,RBA,[4],0.1%
Oc1ccc(-c2ccc(-c3cccc(O)c3)s2)cc1,IC50,[2],69 nM
same,Activity,T47D,inactive
same,Papp at 50 µM,in vitro [5],22 ×10⁻⁶ cm/s
Oc1cccc(-c2ccc(-c3cccc(O)c3)nc2)c1,RBA,[3],0.01%
same,RBA,[4],< 0.01%
Oc1ccc(-c2ccsc2-c2cccc(O)c2)cc1,IC50,[2],> 1000 nM
Oc1cccc(-c2ccc(-c3cccc(O)c3)s2)c1,IC50,[2],173 nM
Oc1cccc(-c2nsc(-c3cccc(O)c3)n2)c1,IC50,[2],169 nM
Oc1cccc(-c2csc(-c3cccc(O)c3)n2)c1,IC50,[2],455 nM
Oc1ccc(-c2ncc(-c3cccc(O)c3)s2)cc1,IC50,[2],> 1000 nM
Oc1cccc(-c2ccc(-c3cccc(O)c3)[se]2)c1,Activity,[1],inactive
Oc1cccc(-c2cc(-c3ccccc3)cs2)c1,IC50,[2],> 5000 nM
Cn1nc(-c2cccc(O)c2)nc1-c1ccc(O)cc1,Activity,[1],inactive
Oc1ccc(-c2nsc(-c3cccc(O)c3)n2)cc1,IC50,[2],413 nM
same,Activity,T47D,inactive
Oc1cccc(-c2cn(-c3cccc(O)c3)nn2)c1,IC50,[2],> 5000 nM
Cn1nc(-c2ccc(O)cc2)nc1-c1cccc(O)c1,Activity,[1],inactive
Oc1cccc(-c2cnc(-c3cccc(O)c3)s2)c1,IC50,[2],243 nM
same,Activity,T47D,inactive
same,IC50,Cytochrome P450 1A2,> 4 µM
same,IC50,Cytochrome P450 2B6,> 4 µM
same,IC50,Cytochrome P450 2C19,> 4 µM
same,IC50,Cytochrome P450 2D6,> 4 µM
same,half-life at 1 µM,in vitro [6],12.6 min
same,microsomal CLint at 1 µM,in vitro [7],367 µL/min/mg
Oc1ccc(-c2cnc(-c3ccc(O)cc3)s2)cc1,Activity,[1],inactive
Oc1ccc(-c2ccc(-c3ccccc3)s2)cc1,Activity,[1],inactive
Cn1nc(-c2ccc(O)cc2)nc1-c1ccc(O)cc1,Activity,[1],inactive
Cn1nc(-c2cccc(O)c2)nc1-c1cccc(O)c1,Activity,[1],inactive
Oc1cccc(-c2nnc(-c3cccc(O)c3)nn2)c1,Cmax,[8],106 ng/mL
same,Cz,Rattus norvegicus [9],54 ng/mL
same,Tmax,[10],3 h
same,tz,Rattus norvegicus [11],10 h
same,half-life,[12],72 min
same,AUC,Rattus norvegicus [13],1200 ng·h/mL
Oc1cccc(-c2nnc(-c3cccc(O)c3)s2)c1,IC50,[2],336 nM
Oc1ccc(-c2csc(-c3ccc(O)cc3)n2)cc1,Activity,[1],inactive
Oc1ccc(-c2cnc(-c3cccc(O)c3)s2)cc1,RBA,[3],< 0.01%
same,RBA,[4],0.01%
same,Cmax,[8],7.8 ng/mL
same,Cz,Rattus norvegicus [9],6.6 ng/mL
same,Tmax,[10],8 h
same,tz,Rattus norvegicus [11],10 h
same,half-life,[12],90 min
same,AUC,Rattus norvegicus [13],99.2 ng·h/mL
same,Papp at 50 µM,in vitro [5],7.8 ×10⁻⁶ cm/s
Oc1ccc(-c2cnc(-c3cccc(O)c3)[nH]2)cc1,Activity,[1],inactive
Oc1cccc(-c2csc(-c3cccc(O)c3)c2)c1,IC50,[2],185 nM
Oc1ccc(-c2ccc(-c3ccc(O)cc3)s2)cc1,Activity,[1],inactive
Oc1ccc(-c2ccsc2-c2ccc(O)cc2)cc1,Activity,[1],inactive
Oc1cccc(-c2ccc(-c3cccc(O)c3)cc2)c1,IC50,[2],173 nM
same,IC50,[14],2260 nM
same,RBA,[3],< 0.001%
same,RBA,[4],0.01%
same,Activity,T47D,inactive
same,IC50,Cytochrome P450 1A2,> 4 µM
same,IC50,Cytochrome P450 2B6,> 4 µM
same,IC50,Cytochrome P450 2C19,> 4 µM
same,IC50,Cytochrome P450 2D6,> 4 µM
same,IC50,Cytochrome P450 2C9,1900 nM
same,IC50,Cytochrome P450 3A4,2100 nM
same,Papp at 50 µM,in vitro [5],12.5 ×10⁻⁶ cm/s
same,half-life at 1 µM,in vitro [6],22.7 min
same,microsomal CLint at 1 µM,in vitro [7],203 µL/min/mg
Oc1ccc(-c2cc(-c3cccc(O)c3)cs2)cc1,IC50,[2],151 nM
same,RBA,[3],0.01%
same,RBA,[4],0.1%
same,Activity,T47D,inactive
same,IC50,Cytochrome P450 1A2,> 4 µM
same,IC50,Cytochrome P450 2B6,> 4 µM
same,IC50,Cytochrome P450 2C19,> 4 µM
same,IC50,Cytochrome P450 2D6,> 4 µM
same,IC50,Cytochrome P450 3A4,1900 nM
same,Papp at 50 µM,in vitro [5],14.4 ×10⁻⁶ cm/s
same,half-life at 1 µM,in vitro [6],18.6 min
same,microsomal CLint at 1 µM,in vitro [7],248 µL/min/mg
Oc1ccc(-c2cccc(-c3cccc(O)c3)c2)cc1,IC50,[2],> 1000 nM
Oc1ccc(-c2ccc(-c3cccc(O)c3)cc2)cc1,IC50,[2],471 nM
same,Activity,T47D,inactive
Oc1ccc(-c2cccc(-c3ccc(O)cc3)c2)cc1,IC50,[2],> 1000 nM
Oc1ccc(-c2csc(-c3cccc(O)c3)n2)cc1,IC50,[2],> 1000 nM
Oc1cccc(-c2cccs2)c1,Activity,[1],inactive
c1ccc(-c2ccc(-c3ccccc3)s2)cc1,Activity,[1],inactive
Oc1ccc(-c2nc(-c3cccc(O)c3)cs2)cc1,IC50,[2],> 5000 nM
